Test results: patent US20140005188A1, “PYRIDO[3,4-B]PYRAZINE DERIVATIVES AS SYK INHIBITORS” (GLAXO GROUP LIMITED, priority 2011, published 2014)
Structures can show the parent of a compound that is named as a salt.

Columns and labels:
SYK = biological target: T1, SYK (Homo sapiens, UniProt P43405); experiment: biochemical; settings: SYK lysate from anti-IgM stimulated Ramos B cells, Y7 Sox peptide 5 μM, ATP 35 μM; read-out: average plC50
T1 construct: The cell pellet was then lysed in ice-cold lysis buffer containing 1% triton-x-100; endogenous in cells; host or cells: Ramos B cells (human Burkitt's lymphoma, clone 296.4C10, ATCC), stimulated with anti-IgM antibody, clarified Triton X-100 lysate
Method: 1. Basic SYK Enzyme Activity
3 μl of SYK lysate diluted 16-fold in assay buffer (20 mM TRIS pH 7.4, 0.01% BSA, 0.1% Pluronic F-68) was added to wells containing 0.1 μl of various concentrations of compound or DMSO vehicle (1.7% final) in a Greiner low volume 384 well black plate. […]
i. Preparation of Ramos Cell Lysates
Cells were grown in Corning Cellstacks (6360 cm^2) in 1 litre volume and viability and cell density were monitored daily. Cells were maintained at <1.5×10e6/ml and >92% viability ii. Stimulation of Ramos Cells with Anti-IgM Ab to Produce Syk & Preparation of Lysates Cells were stimulated at 20×10^6 cells/ml using 15 ug/ml (final concentration) anti-IgM antibody. Following harvest (as described above), a total of 4×10^9 cells were resuspended in 180 mls pre-warmed (37° C.) DPBS in a Corning 500 ml centrifuge bottle. 20 mls anti-IgM antibody at 150 ug/ml were added to each 500 ml centrifuge bottle. (working stock made up in DPBS pre-warmed to 37° C.). Cells were incubated for exactly 5 minutes at 37° C. following the addition of anti IgM antibody. Following 5 minutes stimulation, 300 mls ice-cold DPBS were added to each bottle to stop the stimulation (temperature drops to ˜12 deg C.) then cells were centrifuged at 2000 rpm (Sorvall Legend RT+centrifuge—pre-chilled to 4 deg C.). Cells were washed by resuspension in ice-cold DPBS and centrifugation as above. The cell pellet was then lysed in ice-cold lysis buffer containing 1% triton-x-100 at a ratio of 150 ul/1×10^7 cells (i.e. […] lysis buffer). Following the addition of lysis buffer, the cells were pipetted up & down & kept on ice for 15 minutes. The clarified lysate was then obtained by centrifugation (Sorvall Evolution RC (SLA-1500 rotor, ˜20,000 g (˜14,500 rpm), 45 min, 4° C.).
Lysate was aliquoted, snap-frozen on dry-ice & stored at −80° C. prior to assay.

[1] = cited from earlier work
B lymphoma (BKS-2) = settings: murine BKS-2 B lymphoma model; cited from earlier work

Compound | IC50 (SYK) | further results
CC1CCC(CNc2nc(-c3cnn(C)c3)cc3nccnc23)CN1 (single isomer, unassigned) [Example 176, 7-(1-methyl-1H-pyrazol-4-yl)-N-[(6-methylpiperidin-3-yl)methyl]pyrido[3,4-b]pyrazin-5-amine hydrochloride, single unknown enantiomer] | ≤ 10 µM | –
O=C1CN(c2cc3nccnc3c(NC[C@H]3CCCNC3)n2)CCN1 [Example 30, 4-(5-{[(3S)-3-piperidinylmethyl]amino}pyrido[3,4-b]pyrazin-7-yl)-2-piperazinone, hydrochloride] | ≤ 10 µM | –
Cn1nccc1-c1cc2nccnc2c(NC[C@@H]2CNCCO2)n1 [Example 92, 7-(1-methyl-1H-pyrazol-5-yl)-N-[(2S)-morpholin-2-ylmethyl]pyrido[3,4-b]pyrazin-5-amine hydrochloride] | ≤ 10 µM | –
COc1cncc(-c2cc3nccnc3c(NCC3(F)CCCNC3)n2)c1 (stereo not drawn) [Example 128, N-[(3-fluoropiperidin-3-yl)methyl]-7-(5-methoxypyridin-3-yl)pyrido[3,4-b]pyrazin-5-amine] | ≤ 10 µM | –
Cc1noc(C)c1-c1cc2nccnc2c(NCC2(F)CCCNC2)n1 (stereo not drawn) [Example 157, 7-(dimethyl-1,2-oxazol-4-yl)-N-[(3-fluoropiperidin-3-yl)methyl]pyrido[3,4-b]pyrazin-5-amine hydrochloride] | ≤ 10 µM | –
Fc1ccc(-c2cc3nccnc3c(NCC3(F)CCCNC3)n2)c(F)c1 (stereo not drawn) [Example 166, 7-(2,4-difluorophenyl)-N-[(3-fluoropiperidin-3-yl)methyl]pyrido[3,4-b]pyrazin-5-amine] | ≤ 10 µM | –
COc1cc(Nc2ncc(F)c(Nc3ccc4c(n3)N(COP(=O)(O)O)C(=O)C(C)(C)O4)n2)cc(OC)c1OC [Example R788, fostamatinib disodium] | – | therapeutic benefit ([1]; patients with DLBCL and CLL/SLL): therapeutic benefit; tolerability ([1]; patients with relapsed or refractory B-Cell NHL): well-tolerated
COc1cc(/C=C/C(=O)CC(=O)/C=C/c2ccc(O)c(OC)c2)ccc1O [curcumin] | – | tumour burden as measured by the total splenocyte number (B lymphoma (BKS-2)): significant reduction
